Drawing on PubChem BioAssay AID504359 (Broad Institute, 2011), this text covers AC10 and caspase activation for 21 molecules.

Activity calls are given as the source filed them.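 The calls were made as follows: active = fitted curve climbs past 10% caspase activation, relative to the positive control, at or below the top valid tested dose; inactive = the rest, including activity in the opposite direction.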

The test system of one test is MEF A1-2A-tBid cells, caspase 3/7 luminescence, 3 h. The test can be described thus: apoptosis induction in tBid-primed mouse fibroblasts – cell-based, MEF A1-2A-tBid, luminescence, dry powder, set 2, orthogonal assay for A1 inhibitor project, dose response (AID 504359).
Conditions: not given
Take `Cn1c(=O)c([N+](=O)[O-])c(Cl)c2ccccc21`: the AC10 is 0.716 µM.
Consider `Cn1c(=O)c([N+](=O)[O-])c(-n2cnc3ccccc32)c2ccccc21`, for which the AC10 is 24.8 µM.
In the case of `O=[N+]([O-])c1cnc2ccccc2c1Sc1ccccc1`, the AC10 was 7.93 µM.
`Cc1ccc(Sc2c([N+](=O)[O-])cnc3ccccc23)cc1`: the AC10 was 5.49 µM.
Still for that read-out and setting: as for `Cc1ccc(Sc2c([N+](=O)[O-])c(=O)n(C)c3ccccc23)cc1`, the figure is 7.45 µM.

System in a further test: not listed separately
The description is as above. The note with it: MEF A1-2A-tBid cells, caspase 3/7 luminescence, 3 h; at 35 µM (top of the series).
With `C/C1=C/C(=O)O[C@@H]2C[C@@H](CC[C@H](C)/C=C\CC1)O[C@@](O)(C1CSC(=O)N1)C2` (stereo partly specified), the caspase activation is 3.32% (inactive).
On to `CCOC(=O)N1CCN(c2c([N+](=O)[O-])c(=O)n(C)c3ccccc23)CC1`, for which the caspase activation is -0.293% (inactive).
As to `O=c1oc2ccccc2c(Cl)c1[N+](=O)[O-]`, the caspase activation was -6.09% (inactive).
Same read-out and setting: as for `CCSc1c([N+](=O)[O-])c(=O)oc2ccccc12`, the figure is -3.21% (inactive); as for `Cn1c(=O)c([N+](=O)[O-])c(Nc2ccc(Cl)cc2)c2ccccc21`, -0.562% (inactive).
Same read-out and setting: as for `Cc1ccc(Sc2c([N+](=O)[O-])c(=O)oc3ccccc23)cc1`, the figure is -3.75% (inactive); as for `Cn1c(=O)c([N+](=O)[O-])c(Oc2ccccc2)c2ccccc21`, 0.967% (inactive); as for `O=c1oc2ccccc2c(Sc2ccccc2)c1[N+](=O)[O-]`, -5.14% (inactive).
In the case of `O=c1oc2ccccc2c(N2CCCCC2)c1[N+](=O)[O-]`, the caspase activation is -2.24% (inactive).
Regarding `Cc1ccc(Sc2cc(=O)n(C)c3ccccc23)cc1`, the caspase activation was -7.35% (inactive).
As for `Cc1ccc(Nc2c([N+](=O)[O-])c(=O)n(C)c3ccccc23)cc1`, the caspase activation is -0.806% (inactive).
Regarding `O=c1oc2ccccc2c(Nc2cc(Cl)cc(Cl)c2)c1[N+](=O)[O-]`, the caspase activation was -1.39% (inactive).
Take `O=C(Oc1cccc(/C=N/Nc2nc(Nc3ccccc3)nc(N3CCOCC3)n2)c1)c1ccco1`: the caspase activation is 3.43% (inactive).
For `CCOCCCNc1c([N+](=O)[O-])c(=O)n(C)c2ccccc12`, the caspase activation was 0.513% (inactive).
In the case of `Cc1ccc(Nc2c([N+](=O)[O-])c(=O)oc3ccccc23)cc1`, the caspase activation was 1.44% (inactive).
Still for that read-out and setting: as for `CN1C(=O)C(C)(C)N(Cc2ccccc2)c2ccccc21`, the figure is 0.072% (inactive).
